Test results reported in patent EP3906926A1, “PROLINE HYDROXYLASE INHIBITORS FOR USE IN THE SKELETAL MUSCLE REGENERATION” (Policlinico San Donato S.p.A.- Istituto di Ricovero e Cura …, priority 2020, dated 2021).

Tests used:
PHDs = assay: ODD-luciferase reporter assay (Dual-Glo) for PHDs inhibition; conditions: C2C12 myoblasts transfected with ODD-luciferase-pcDNA3; 24 hours at 10, 25, 50, 100 µM, normoxic conditions; linear regression
Experimental: The IC50 was calculated using a Dual-Glo® Luciferase Assay System kit (Promega) that allows a high-throughput analysis of mammalian cells containing the Firefly (Luciferase-pcDNA3, ODD-Luciferase-pcDNA3) and Renilla (pRL-CMV) luciferase reporters. Briefly, 5 x 10^3 cells per well were seeded in a 96-well plate, and then transfected for 24 hours with a Luciferase-pcDNA3 or an ODD-Luciferase-pcDNA3 (80 ng), containing the firefly gene reporter. A co-transfection with pRL-CMV (8 ng), containing the renilla gene reporter, was performed as an internal control, according to the ViaFect Transfection Reagent® protocol (Promega). After transfection, cells were treated with 10, 25, 50, and 100 µM IOX2 or FG-4592 (R oxadustat) for 24 hours, and then an equal volume of Dual-Glo® Luciferase Reagent was added to each well, incubated at room temperature for 30 minutes, and then analyzed with a Varioskan™ LUX Multimode Microplate Reader (ThermoFisher Scientific). Then, an equal volume of Dual-Glo® Stop & Glo® Reagent was added to each well in order to quench the luminescence from the firefly reaction and to provide the substrate for the renilla luciferase. The mixture was incubated for 30 minutes before analysis. The IC50 values were calculated by linear regression.
To this purpose, the IC50 of both compounds was determined by transiently co-transfecting C2C12 myoblasts with the ODD-luciferase-pcDNA3 plasmid, containing the Oxygen Dependent Domain (ODD) of HIF-1α, and with the pRL-CMV plasmid, as the internal control (Figure 4, panel A). Then, transfected cells were treated for 24 hours with IOX2 or FG-4592 at different concentrations (10, 25, 50, and 100 µM) under normoxic conditions, and the emitted luminescence was collated to untreated controls.
The EC50 was calculated using a Dual-Glo® Luciferase Assay System kit (Promega) that allows a high-throughput analysis of mammalian cells containing the Firefly (Luciferase-pcDNA3, ODD-Luciferase-pcDNA3) and Renilla (pRL-CMV) luciferase reporters. Briefly, 5 x 10^3 cells per well were seeded in a 96-well plate, and then transfected for 24 hours with a Luciferase-pcDNA3 or an ODD-Luciferase-pcDNA3 (80 ng), containing the firefly gene reporter. A co-transfection with pRL-CMV (8 ng), containing the renilla gene reporter, was performed as an internal control, according to the ViaFect Transfection Reagent® protocol (Promega). […] Then, an equal volume of Dual-Glo® Stop & Glo® Reagent was added to each well in order to quench the luminescence from the firefly reaction and to provide the substrate for the renilla luciferase. The mixture was incubated for 30 minutes before analysis. The EC50 values were calculated by linear regression.
The EC50 of each compound was determined by transiently co-transfecting C2C12 myoblasts with the ODD-luciferase-pcDNA3 plasmid, containing the Oxygen Dependent Domain (ODD) of HIF-1α, and with the pRL-CMV plasmid, as the internal control (Figure 12, panel A).

MHC = assay: qPCR of MHC during differentiation; assay type: cell-based, murine; conditions: day 7 of differentiation, IOX2 or FG-4592 pre-treated myoblasts
Experimental: (§1) Total RNA was isolated using ReliaPrep™ RNA Miniprep Systems (Promega), and reverse transcribed to cDNA using the iScript cDNA synthesis kit (BioRad), according to the Manufacturer's instructions. Real-Time Quantitative PCR was performed on 10 ng of cDNA template, 0.2 µM primers, and GoTaq® qPCR Master Mix (Promega) in 20 µl final volume using a StepOnePlus® Real-Time PCR System (Applied Biosystem). […] RPL13 was used as the housekeeping gene. The amplification program consisted in an initial denaturation at 95°C for 3 minutes, followed by 40 cycles of 5 seconds each at 95°C and 30 seconds at 57°C; WNT7a was amplified at 53°C. Relative quantification of target genes was performed in triplicate and calculated by the equation 2^-ΔΔCt.
as §1, with “ReliaPrepTM” for “ReliaPrep™”, “2-ΔΔCt.” for “2^-ΔΔCt.”

MyoD = assay: Western blot of MyoD nuclear localization; assay type: cell-based, murine; conditions: IOX2 or FG-4592 for 24 hours
Experimental: (§2) For nuclei separation, 5 x 10^6 cells were collected after enzymatic digestion with trypsin (Merck), centrifuged at the maximum speed, resuspended in 400 µl of Buffer A (10 mM KCl, 0.1 mM EDTA, 1 mM DTT, 10 mM Hepes, pH 7.9), containing protease and phosphatase inhibitors cocktail (Merck), and incubated on ice for 20 minutes. Then, 10% NP40 was added to the cell suspension, mixed for 40 seconds, and centrifuged 40 seconds at the maximum speed. After centrifugation, the pellet was resuspended in 80 µl of Buffer C (0.4M NaCl, 1 mM EDTA, 1 mM DTT, 20 mM Hepes, pH 7.9), containing a protease and phosphatase inhibitors cocktail, and then mixed for 30 minutes at 4°C at the maximum speed. Finally, the nuclear suspension was centrifuged for 5 minutes at 4°C at the maximum speed, collected and transferred in a new tube. The total protein content was determined with the BCA Protein Assay Kit (Pierce), according to the manufacturer's instructions.
Proteins were denaturated by boiling for 10 minutes in sample buffer (0.6 g/100 mL Tris, 2 g/100 mL SDS, 10% glycerol, 1% 2-mercaptoethanol, pH 6.8) and loaded into 10% SDS-PAGE gel, then transferred onto a nitrocellulose membrane (Trans-blot, Bio-Rad Laboratories) by electroblotting. Nitrocellulose membranes were incubated with a blocking solution containing 5% (w/v) non-fat dry milk or 5% (w/v) BSA (Merck) in Tris-buffer saline with 0.1% Tween® 20 (TBS-T) for 1 hour. […] Membranes were washed three times for 10 minutes with TBS-T, and then incubated with the appropriate anti-mouse, anti-rabbit, or anti-goat HRP-conjugated secondary antibodies (Dako, Agilent Technologies), 1:2000 dilution, for 1 hour at room temperature. After three washes for 10 minutes with TBS-T, the immunoreactive bands were visualized using the enhanced chemiluminescence detection kit reagents (ECL Advance, GeHealthcare), according to the manufacturer's instructions.
as §2, with “For total proteins extraction, 7.5 x 10^4 cells were seeded and harvested at 7th days of skeletal muscle differentiation, as previously described. Cells were collected after enzymatic digestion with trypsin (Merck), lysed by sonication and centrifuged at 800 xg for 10 minutes. Supernatant was used to determine total protein content with the BCA Protein Assay Kit (Pierce), according to the manufacturer's instructions. For” for “For”, “(0.4 M” for “(0.4M”

WNT7a promoter = assay: Nano-Glo luciferase reporter assay of pNL1.1-WNT7a promoter activity; assay type: cell-based, murine; conditions: 24 hours at IC50 working concentrations
Experimental: Genomic DNA was extracted from C2C12 murine myoblast and used as the template for WNT7a promoter amplification. The PCR reaction was prepared using a Phusion High-Fidelity kit (New England Biolabs) and employing the following primers: forward 5'-[…]-3' (SEQ ID NO:1), containing KpnI enzymatic site, and reverse 5'-[…]-3' (SEQ ID NO:2) containing the HindIII enzymatic site. The PCR fragment and the vector pNL1.1(Nluc) (Promega) were digested with KnpI and HindIII (Promega) restriction enzymes for 2 hours at 37°C and, then, they were purified from agarose gel using Wizard® SV Gel and PCR Clean-Up System (Promega). The fragment was inserted into the multiple cloning site of pNL1.1 vector using T4 Ligase Fast (Promega) and the reaction was incubated for 1 hour at room temperature. The presence of the insert in the plasmid was finally verified by DNA sequencing.
Briefly, cells were seeded in a 96-well plate at a concentration of 5 x 10^3 cells per well, transfected with the pNL1.1 or pNL1.1WNT7a_promoter (90 ng) plasmids and pGL4.54(luc2/TK) (10 ng) plasmid as internal control, according to ViaFect Transfection Reagent® protocol (Promega), and then incubated for 24 hours. […] To turn off the luminescence of the Firefly luciferase and provide the substrate for the Nanoluc, an equal volume of NanoDLR™ Stop&Glo® Reagent was added to the mixture and incubated for 30 minutes before analysis.

Row | Compound | IC50 (PHDs) [µM] | enhancement of MHC (MHC) [fold] | increase of the nuclear localization of MyoD (MyoD) [fold] | WNT7a promoter activation, luminescence increase (WNT7a promoter) [fold]
1 | Cc1nc(C(=O)NCC(=O)O)c(O)c2ccc(Oc3ccccc3)cc12 [FG-4592, Roxadustat] | 40 | 2.3 | 1.5 | 1.3
2 | O=C(O)CNC(=O)c1c(O)c2ccccc2n(Cc2ccccc2)c1=O [IOX2] | 50 | 2.2 | 1.6 | 1.4
